From patent publication US5073551A, “Cephalosporin compounds” (Sagami Chemical Research Center, priority 1988, dated 1991)
In brackets after ≈: the same amount, converted by molar mass. Where two headings read alike, the source gives them in different places.

Tests used:
P. mirabilis IFO 3849 = assay: In-vitro antibacterial activity test, minimum growth inhibitory concentration (MIC), P. mirabilis; assay type: cell-based; conditions: Proteus mirabilis
S. aureus 209 P-JC = assay: In-vitro antibacterial activity test, minimum growth inhibitory concentration (MIC), S. aureus; assay type: cell-based; conditions: Staphylococcus aureus, 209PJC, read-out: Minimum growth inhibitory concentration
[1] = In-vivo absorption test, serum concentration after oral administration (bioassay); set-up: species or system Wistar type rat (male); conditions: 50 mg/kg, fasted male Wistar rat, bioassay with Bacirus cereus S1101, read-out: Blood concentration / Serum concentration; for concentration at 1 h: 1 hr after oral administration; for concentration at 2 h: 2 hr after oral administration; for concentration at 4 h: 4 hr after oral administration
[2] = IFO3849, P. mirabilis IFO 3849, read-out: Minimum growth inhibitory concentration

Row | SMILES | concentration at 1 h [1] [ng/mL] | concentration at 2 h [1] [ng/mL] | concentration at 4 h [1] [ng/mL] | MIC (P. mirabilis IFO 3849; [2]) [µg/mL] | MIC (S. aureus 209 P-JC; S. aureus 209 P-JC) [µg/mL] | MIC (P. mirabilis IFO 3849; IFO3849, read-out: Minimum growth inhibitory concentration) [µg/mL] | MIC (S. aureus 209 P-JC) [µg/mL]
1 | C=CC1=C(C(=O)O)N2C(=O)C(NC(=O)/C(=N\OCC(=O)O)c3csc(N)n3)C2SC1 (stereo not shown) [A, reference compound] |  |  |  | ≤ 0.025 | 12.5 (≈ 27.6 µM) |  | 
2 | Nc1nc(/C(=N/O)C(=O)NC2C(=O)N3C(C(=O)[O-])=C(/C=C\c4csnn4)CS[C@H]23)cs1.[Na+] (stereo partly shown) | 4800 | 6000 | 6000 |  |  | 0.1 | ≤ 0.025
3 | Cc1nnsc1/C=C\C1=C(C(=O)[O-])N2C(=O)C(NC(=O)/C(=N\O)c3csc(N)n3)[C@H]2SC1.[Na+] (stereo partly shown) [Example 14, sodium 7-[(Z)-2-(2-aminothiazol-4-yl)-2-hydroxyiminoacetamido]-3-[(Z)-2-(4-methyl-1,2,3-thiadiazol-5-yl)vinyl]-3-cephem-4-carboxylate] |  |  |  | 0.39 | 0.1 |  | 
4 | Nc1nc(/C(=N/O)C(=O)NC2C(=O)N3C(C(=O)O)=C(/C=C\c4cnns4)CSC23)cs1 (stereo not shown) [Example 21] |  |  |  | 0.39 (≈ 0.813 µM) | 0.2 (≈ 0.417 µM) |  | 
5 | Cc1snnc1/C=C\C1=C(C(=O)[O-])N2C(=O)C(NC(=O)/C(=N\O)c3csc(N)n3)[C@H]2SC1.[Na+] (stereo partly shown) [Example 18, sodium 7-[(Z)-2-(2-aminothiazol-4-yl)-2-hydroxyiminoacetamido]-3-[(Z)-2-(5-methyl-1,2,3-thiadiazol-4-yl)vinyl]-3-cephem-4-carboxylate] |  |  |  | 0.39 | 0.2 |  | 
6 | CCOC(=O)OC(C)OC(=O)C1=C(/C=C\c2csnn2)CSC2C(NC(=O)/C(=N\O)c3csc(N)n3)C(=O)N12 (racemic) [Example 22, DL-1-ethoxycarbonyloxyethyl 7-[(Z)-(2-aminothiazol-4-yl)-2-hydroxyiminoacetamido]-3-[(Z)-2-(1,2,3-thiadiazol-4-yl)vinyl]-3-cephem-4-carboxylate] | 26600 | 37800 | 26700 |  |  |  | 

The next lines start with results.

Row | concentration at 1 h [1] [ng/mL] | concentration at 2 h [1] [ng/mL] | concentration at 4 h [1] [ng/mL] | SMILES | MIC (P. mirabilis IFO 3849; [2]) [µg/mL] | MIC (S. aureus 209 P-JC; S. aureus 209 P-JC) [µg/mL] | MIC (P. mirabilis IFO 3849; IFO3849, read-out: Minimum growth inhibitory concentration) [µg/mL] | MIC (S. aureus 209 P-JC) [µg/mL]
7 | 72100 | 56600 | 33400 | CC(=O)OC(C)OC(=O)C1=C(/C=C\c2csnn2)CSC2C(NC(=O)/C(=N\O)c3csc(N)n3)C(=O)N12 (racemic) [Example 23, DL-1-acetyloxyethyl 7-[(Z)-2-(2-aminothiazol-4-yl)-2-hydroxyiminoacetamido]-3-[(Z)-2-(1,2,3-thiadiazol-4-yl)vinyl]-3-cephem-4-carboxylate] |  |  |  | 
8 | 11300 | 9800 | 5800 | CC(C)(C)C(=O)OCOC(=O)C1=C(/C=C\c2csnn2)CS[C@@H]2C(NC(=O)/C(=N\O)c3csc(N)n3)C(=O)N12 (stereo partly shown) [Example 19, pivalyloxymethyl 7-[(Z)-(2-aminothiazol-4-yl)-2-hydroxyiminoacetamido]-3-[(Z)-2-(1,2,3-thiadiazol-4-yl)vinyl]-3-cephem-4-carboxylate] |  |  |  | 
